≈ marks a conversion by molar mass, not a printed value.
Tests used:
Assay type in all cases: functional
Neisseria gonorrhoeae [1] = experiment: Antibacterial activity against Neisseria gonorrhoeae isolate SM2 expressing SF-A mosaic penA allele by agar dilution method
Neisseria gonorrhoeae [2] = experiment: Antibacterial activity against Neisseria gonorrhoeae isolate SM3 expressing SF-A mosaic penA allele by agar dilution method
Neisseria gonorrhoeae [3] = experiment: Antibacterial activity against Neisseria gonorrhoeae isolate SM4 expressing SF-B mosaic penA allele by agar dilution method
Neisseria gonorrhoeae [4] = experiment: Antibacterial activity against Neisseria gonorrhoeae isolate SM1 expressing SF-A mosaic penA allele by agar dilution method
Neisseria gonorrhoeae [5] = experiment: Antibacterial activity against Neisseria gonorrhoeae isolate SW1 expressing nonmosaic penA allele by agar dilution method
Neisseria gonorrhoeae [6] = experiment: Antibacterial activity against Neisseria gonorrhoeae isolate SW2 expressing nonmosaic penA allele by agar dilution method
Neisseria gonorrhoeae [7] = experiment: Antibacterial activity against Neisseria gonorrhoeae isolate SM5 expressing SF-B mosaic penA allele by agar dilution method

C=CC1=C(C(=O)O)N2C(=O)[C@@H](NC(=O)/C(=N\OCC(=O)O)c3csc(N)n3)[C@H]2SC1 [CEFIXIME]
MIC (Neisseria gonorrhoeae [1]): 0.125 µg/mL (≈ 0.276 µM)
MIC (Neisseria gonorrhoeae [2]): 0.25 µg/mL (≈ 0.551 µM)
MIC (Neisseria gonorrhoeae [3]): ≤ 0.008 µg/mL
MIC (Neisseria gonorrhoeae [4]): 0.25 µg/mL (≈ 0.551 µM)
MIC (Neisseria gonorrhoeae [5]): ≤ 0.008 µg/mL
MIC (Neisseria gonorrhoeae [6]): 0.015 µg/mL (≈ 0.0331 µM)
MIC (Neisseria gonorrhoeae [7]): 0.015 µg/mL (≈ 0.0331 µM)

COCC1=C(C(=O)O)N2C(=O)[C@@H](NC(=O)/C(=N\OC)c3csc(N)n3)[C@H]2SC1 [CEFPODOXIME]
MIC (Neisseria gonorrhoeae [1]): 0.5 µg/mL (≈ 1.17 µM)
MIC (Neisseria gonorrhoeae [2]): 1 µg/mL (≈ 2.34 µM)
MIC (Neisseria gonorrhoeae [3]): 0.06 µg/mL (≈ 0.14 µM)
MIC (Neisseria gonorrhoeae [4]): 1 µg/mL (≈ 2.34 µM)
MIC (Neisseria gonorrhoeae [5]): 0.015 µg/mL (≈ 0.0351 µM)
MIC (Neisseria gonorrhoeae [6]): 0.03 µg/mL (≈ 0.0702 µM)
MIC (Neisseria gonorrhoeae [7]): 0.25 µg/mL (≈ 0.585 µM)

CO/N=C(\C(=O)N[C@@H]1C(=O)N2C(C(=O)O)=C(CSc3nc(=O)c(O)nn3C)CS[C@H]12)c1csc(N)n1 [CEFTRIAXONE]
MIC (Neisseria gonorrhoeae [1]): 0.06 µg/mL (≈ 0.108 µM)
MIC (Neisseria gonorrhoeae [2]): 0.03 µg/mL (≈ 0.0541 µM)
MIC (Neisseria gonorrhoeae [3]): ≤ 0.008 µg/mL
MIC (Neisseria gonorrhoeae [4]): 0.06 µg/mL (≈ 0.108 µM)
MIC (Neisseria gonorrhoeae [5]): ≤ 0.008 µg/mL
MIC (Neisseria gonorrhoeae [6]): ≤ 0.008 µg/mL
MIC (Neisseria gonorrhoeae [7]): ≤ 0.008 µg/mL

Source: ChEMBL document CHEMBL1649580, “Mosaic penicillin-binding protein 2 in Neisseria gonorrhoeae isolates collected in 2008 in San Francisco, California” (2009)
